Assay: Stability of solid of type-G fenolamine crystal form (influencing factor experiment)
Format: physicochemical
Conditions: open watch glass; 60° C., 40° C., and 25° C., relative humidity 90%±5%, illumination 4500 lx±500 lx; 10 days, sampled Days 0, 5, 10; powder X-ray diffraction and gas chromatography
Procedure: Type-G fenolamine crystal form samples were placed in open clean watch glasses, and kept under conditions of a high temperature of 60° C., a high temperature of 40° C., and 25° C., a relative humidity of 90%±5%, and illumination at 4500 lx±500 lx for 10 days, and samples were taken on Days 0, 5, and 10. Powder X-ray diffraction (with a resultant pattern consistent to that in FIG. 1) and gas chromatography means were used for analysis. […] All of the products from Example 1 were subjected to this test and achieved the same effect.

Structure (SMILES): COc1ccc(OC)c(/C(=C\c2ccc(O)c(OC)c2)C(=O)NCCc2ccc(O)cc2)c1 [type-G fenolamine crystal form, trans-2-(2,5-dimethoxyphenyl)-3-(4-hydroxy-3-methoxyphenyl)-N-(4-hydroxyphenylethyl)-acrylamide]
- stability of the crystal form under conditions of high temperature, high humidity and light illumination: stable

From patent US11236041B2, “Type-G crystal form of fenolamine, preparation method, composition and use thereof” (INSTITUTE OF MATARIA MEDICA, CHINESE ACADEMY OF MEDICAL …, priority 2017, dated 2022)
